# According to US6350585B1, “Reagent for assay of amylase isozyme activity” (priority 1998, dated 2002):
# Molecular target: T1, S-type amylase (Calibzyme S) (Homo sapiens, UniProt P0DUB6)
# T1 construct: purchased International Reagents Corporation Calibzyme S
# T1 sequence (P0DUB6 16-511): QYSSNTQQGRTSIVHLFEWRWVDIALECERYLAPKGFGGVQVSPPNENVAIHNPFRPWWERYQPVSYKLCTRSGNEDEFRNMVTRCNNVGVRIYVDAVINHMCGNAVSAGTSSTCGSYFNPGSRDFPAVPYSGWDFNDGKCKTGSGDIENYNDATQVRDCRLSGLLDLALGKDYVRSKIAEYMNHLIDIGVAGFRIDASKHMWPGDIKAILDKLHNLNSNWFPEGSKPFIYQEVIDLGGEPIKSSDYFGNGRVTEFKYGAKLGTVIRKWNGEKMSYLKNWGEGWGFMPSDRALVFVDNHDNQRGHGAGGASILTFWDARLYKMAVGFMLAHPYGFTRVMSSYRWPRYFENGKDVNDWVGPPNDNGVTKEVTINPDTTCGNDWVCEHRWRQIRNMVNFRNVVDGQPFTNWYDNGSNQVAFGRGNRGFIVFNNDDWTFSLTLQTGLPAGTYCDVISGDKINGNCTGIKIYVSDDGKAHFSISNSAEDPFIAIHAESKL
# Experiment: amylase isozyme activity assay with potassium thiocyanate as activator, S-type amylase sample
# Format: biochemical
# Details: for Relative sensitivity: G3CNP at 900 mM = 100; for Percent residual enzyme activity: composition A/B
# Procedure: A reagent for amylase isozyme activity assay comprising each composition as mentioned below was prepared. In the Table showing the composition, GalG2CNP (Example) is 2-chloro-4-nitrophenyl 4-O-β-D-galactopyranosylmaltoside, and G3CNP (Comparative Example) is 2-chloro-4-nitrophenylmaltotrioside.
# S-type amylase-inhibiting antibody 88E8 (manufactured by Roche Diagnostics K.K.) 20 mg/L
# S-type amylase-inhibiting antibody 66C7 (manufactured by Roche Diagnostics K.K.) 5 mg/L
# Substrate (GalG2CNP (Example) or G3CNP (Comparative Example)) 2.6 mM
# (3) S-type Amylase (Calibzyme S, Manufactured by International Reagents Corporation)
# Each sample (0.05 mL was added to the reagent A (3 mL) and the reagent B (3 mL), respectively, and the mixtures were allowed to stand at 37° C. for 3 minutes. Then, the change in absorbance at 405 nm was assayed, and the change in absorbance per minute was calculated. The results are shown in Tables 1 and 2.
# In the Tables, P is the case where P-type amylase was used as the sample, and S is the case where S-type amylase was used.
# Percent residual enzyme activity (%)=(change in absorbance of composition A)/(change in absorbance of composition B)×100
# Relative sensitivity (%)=(change in absorbance of composition B)/(change in absorbance of Comparative Example wherein potassium thiocyanate was 900 mM)×100
smiles,measurement,setting,value
"O=[N+]([O-])c1ccc(O[C@H]2O[C@H](CO)[C@@H](O[C@H]3O[C@H](CO)[C@@H](O[C@H]4O[C@H](CO)[C@@H](O)[C@H](O)[C@H]4O)[C@H](O)[C@H]3O)[C@H](O)[C@H]2O)c(Cl)c1 [Example G3CNP, 2-chloro-4-nitrophenylmaltotrioside, reference compound]","Change in absorbance, Containing Antibody (Composition A)",potassium thiocyanate 0 mM,0.5 mABS/min
same,"Change in absorbance, Without antibody (Composition B)",potassium thiocyanate 0 mM,4.9 mABS/min
same,Relative sensitivity,potassium thiocyanate 0 mM,11.0%
same,Percent residual enzyme activity,potassium thiocyanate 0 mM,10.2%
same,"Change in absorbance, Containing Antibody (Composition A)",potassium thiocyanate 50 mM,0.7 mABS/min
same,"Change in absorbance, Without antibody (Composition B)",potassium thiocyanate 50 mM,14.8 mABS/min
same,Relative sensitivity,potassium thiocyanate 50 mM,33.1%
same,Percent residual enzyme activity,potassium thiocyanate 50 mM,4.7%
same,"Change in absorbance, Containing Antibody (Composition A)",potassium thiocyanate 100 mM,0.9 mABS/min
same,"Change in absorbance, Without antibody (Composition B)",potassium thiocyanate 100 mM,21.9 mABS/min
same,Relative sensitivity,potassium thiocyanate 100 mM,49.0%
same,Percent residual enzyme activity,potassium thiocyanate 100 mM,4.1%
same,"Change in absorbance, Containing Antibody (Composition A)",potassium thiocyanate 140 mM,1.3 mABS/min
same,"Change in absorbance, Without antibody (Composition B)",potassium thiocyanate 140 mM,26.6 mABS/min
same,Relative sensitivity,potassium thiocyanate 140 mM,59.5%
same,Percent residual enzyme activity,potassium thiocyanate 140 mM,4.9%
same,"Change in absorbance, Containing Antibody (Composition A)",potassium thiocyanate 200 mM,1.5 mABS/min
same,"Change in absorbance, Without antibody (Composition B)",potassium thiocyanate 200 mM,31.4 mABS/min
same,Relative sensitivity,potassium thiocyanate 200 mM,70.2%
same,Percent residual enzyme activity,potassium thiocyanate 200 mM,4.8%
same,"Change in absorbance, Containing Antibody (Composition A)",potassium thiocyanate 300 mM,2.2 mABS/min
same,"Change in absorbance, Without antibody (Composition B)",potassium thiocyanate 300 mM,39.7 mABS/min
same,Relative sensitivity,potassium thiocyanate 300 mM,88.8%
same,Percent residual enzyme activity,potassium thiocyanate 300 mM,5.5%
same,"Change in absorbance, Containing Antibody (Composition A)",potassium thiocyanate 400 mM,3.3 mABS/min
same,"Change in absorbance, Without antibody (Composition B)",potassium thiocyanate 400 mM,43.2 mABS/min
same,Relative sensitivity,potassium thiocyanate 400 mM,96.6%
same,Percent residual enzyme activity,potassium thiocyanate 400 mM,7.6%
same,"Change in absorbance, Containing Antibody (Composition A)",potassium thiocyanate 500 mM,4.6 mABS/min
same,"Change in absorbance, Without antibody (Composition B)",potassium thiocyanate 500 mM,45.8 mABS/min
same,Relative sensitivity,potassium thiocyanate 500 mM,102.5%
same,Percent residual enzyme activity,potassium thiocyanate 500 mM,10.0%
same,"Change in absorbance, Containing Antibody (Composition A)",potassium thiocyanate 600 mM,5.4 mABS/min
same,"Change in absorbance, Without antibody (Composition B)",potassium thiocyanate 600 mM,47.3 mABS/min
same,Relative sensitivity,potassium thiocyanate 600 mM,105.8%
same,Percent residual enzyme activity,potassium thiocyanate 600 mM,11.4%
same,"Change in absorbance, Containing Antibody (Composition A)",potassium thiocyanate 700 mM,7.0 mABS/min
same,"Change in absorbance, Without antibody (Composition B)",potassium thiocyanate 700 mM,47.1 mABS/min
same,Relative sensitivity,potassium thiocyanate 700 mM,105.4%
same,Percent residual enzyme activity,potassium thiocyanate 700 mM,14.9%
same,"Change in absorbance, Containing Antibody (Composition A)",potassium thiocyanate 800 mM,8.4 mABS/min
same,"Change in absorbance, Without antibody (Composition B)",potassium thiocyanate 800 mM,45.8 mABS/min
same,Relative sensitivity,potassium thiocyanate 800 mM,102.5%
same,Percent residual enzyme activity,potassium thiocyanate 800 mM,18.3%
same,"Change in absorbance, Containing Antibody (Composition A)",potassium thiocyanate 900 mM,10.0 mABS/min
same,"Change in absorbance, Without antibody (Composition B)",potassium thiocyanate 900 mM,44.7 mABS/min
same,Relative sensitivity,potassium thiocyanate 900 mM,100.0%
same,Percent residual enzyme activity,potassium thiocyanate 900 mM,22.4%
"O=[N+]([O-])c1ccc(O[C@H]2O[C@H](CO)[C@@H](O[C@H]3O[C@H](CO)[C@@H](O[C@@H]4O[C@H](CO)[C@H](O)[C@H](O)[C@H]4O)[C@H](O)[C@H]3O)[C@H](O)[C@H]2O)c(Cl)c1 [GalG2CNP, 2-chloro-4-nitrophenyl 4-O-β-D-galactopyranosylmaltoside]","Change in absorbance, Containing Antibody (Composition A)",potassium thiocyanate 0 mM,0.9 mABS/min
same,"Change in absorbance, Without antibody (Composition B)",potassium thiocyanate 0 mM,14.3 mABS/min
same,Relative sensitivity,potassium thiocyanate 0 mM,32.0%
same,Percent residual enzyme activity,potassium thiocyanate 0 mM,6.3%
same,"Change in absorbance, Containing Antibody (Composition A)",potassium thiocyanate 50 mM,1.4 mABS/min
same,"Change in absorbance, Without antibody (Composition B)",potassium thiocyanate 50 mM,31.1 mABS/min
same,Relative sensitivity,potassium thiocyanate 50 mM,69.6%
same,Percent residual enzyme activity,potassium thiocyanate 50 mM,4.5%
same,"Change in absorbance, Containing Antibody (Composition A)",potassium thiocyanate 100 mM,1.7 mABS/min
same,"Change in absorbance, Without antibody (Composition B)",potassium thiocyanate 100 mM,40.2 mABS/min
same,Relative sensitivity,potassium thiocyanate 100 mM,89.9%
same,Percent residual enzyme activity,potassium thiocyanate 100 mM,4.2%
same,"Change in absorbance, Containing Antibody (Composition A)",potassium thiocyanate 140 mM,1.8 mABS/min
same,"Change in absorbance, Without antibody (Composition B)",potassium thiocyanate 140 mM,44.6 mABS/min
same,Relative sensitivity,potassium thiocyanate 140 mM,99.8%
same,Percent residual enzyme activity,potassium thiocyanate 140 mM,4.0%
same,"Change in absorbance, Containing Antibody (Composition A)",potassium thiocyanate 200 mM,2.2 mABS/min
same,"Change in absorbance, Without antibody (Composition B)",potassium thiocyanate 200 mM,50.0 mABS/min
same,Relative sensitivity,potassium thiocyanate 200 mM,111.9%
same,Percent residual enzyme activity,potassium thiocyanate 200 mM,4.4%
same,"Change in absorbance, Containing Antibody (Composition A)",potassium thiocyanate 300 mM,3.0 mABS/min
same,"Change in absorbance, Without antibody (Composition B)",potassium thiocyanate 300 mM,53.6 mABS/min
same,Relative sensitivity,potassium thiocyanate 300 mM,119.9%
same,Percent residual enzyme activity,potassium thiocyanate 300 mM,5.6%
same,"Change in absorbance, Containing Antibody (Composition A)",potassium thiocyanate 400 mM,3.8 mABS/min
same,"Change in absorbance, Without antibody (Composition B)",potassium thiocyanate 400 mM,54.5 mABS/min
same,Relative sensitivity,potassium thiocyanate 400 mM,121.9%
same,Percent residual enzyme activity,potassium thiocyanate 400 mM,7.0%
same,"Change in absorbance, Containing Antibody (Composition A)",potassium thiocyanate 500 mM,4.7 mABS/min
same,"Change in absorbance, Without antibody (Composition B)",potassium thiocyanate 500 mM,53.7 mABS/min
same,Relative sensitivity,potassium thiocyanate 500 mM,120.1%
same,Percent residual enzyme activity,potassium thiocyanate 500 mM,8.8%
same,"Change in absorbance, Containing Antibody (Composition A)",potassium thiocyanate 600 mM,5.7 mABS/min
same,"Change in absorbance, Without antibody (Composition B)",potassium thiocyanate 600 mM,51.9 mABS/min
same,Relative sensitivity,potassium thiocyanate 600 mM,116.1%
same,Percent residual enzyme activity,potassium thiocyanate 600 mM,11.0%
same,"Change in absorbance, Containing Antibody (Composition A)",potassium thiocyanate 700 mM,7.2 mABS/min
same,"Change in absorbance, Without antibody (Composition B)",potassium thiocyanate 700 mM,48.6 mABS/min
same,Relative sensitivity,potassium thiocyanate 700 mM,108.7%
same,Percent residual enzyme activity,potassium thiocyanate 700 mM,14.8%
same,"Change in absorbance, Containing Antibody (Composition A)",potassium thiocyanate 800 mM,8.2 mABS/min
same,"Change in absorbance, Without antibody (Composition B)",potassium thiocyanate 800 mM,47.1 mABS/min
same,Relative sensitivity,potassium thiocyanate 800 mM,105.4%
same,Percent residual enzyme activity,potassium thiocyanate 800 mM,17.4%
same,"Change in absorbance, Containing Antibody (Composition A)",potassium thiocyanate 900 mM,9.6 mABS/min
same,"Change in absorbance, Without antibody (Composition B)",potassium thiocyanate 900 mM,43.3 mABS/min
same,Relative sensitivity,potassium thiocyanate 900 mM,96.9%
same,Percent residual enzyme activity,potassium thiocyanate 900 mM,22.2%
